Legend:
SK-MEL-3 tumor cells = assay: Method C: Cell Growth Inhibition Assay (CellTiter-Glo), SK-MEL-3; type: cell-based; conditions: Homo sapiens, SK-MEL3, 72 h, 3 days, 4-parameter fit
Summary of the method: (§1)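 Plating at 500 cells/well is followed the next day by addition of compound as a 1:3 serial dilution series. After 3 days' incubation, CellTiter-Glo luminescence is read and IC50 is calculated versus DMSO wells.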

ErbB2 = molecular target: T1, ErbB2 (Homo sapiens, UniProt P04626); assay: ErbB-2 substrate phosphorylation assay (HTRF); type: biochemical; conditions: Method (A): Enzyme Mix incubated with compound at 20° C. for 1 hr, reaction started by adding Substrate Mix
T1 construct: made in house; host or cells: baculovirus expression system
T1 sequence (P04626 23-1255): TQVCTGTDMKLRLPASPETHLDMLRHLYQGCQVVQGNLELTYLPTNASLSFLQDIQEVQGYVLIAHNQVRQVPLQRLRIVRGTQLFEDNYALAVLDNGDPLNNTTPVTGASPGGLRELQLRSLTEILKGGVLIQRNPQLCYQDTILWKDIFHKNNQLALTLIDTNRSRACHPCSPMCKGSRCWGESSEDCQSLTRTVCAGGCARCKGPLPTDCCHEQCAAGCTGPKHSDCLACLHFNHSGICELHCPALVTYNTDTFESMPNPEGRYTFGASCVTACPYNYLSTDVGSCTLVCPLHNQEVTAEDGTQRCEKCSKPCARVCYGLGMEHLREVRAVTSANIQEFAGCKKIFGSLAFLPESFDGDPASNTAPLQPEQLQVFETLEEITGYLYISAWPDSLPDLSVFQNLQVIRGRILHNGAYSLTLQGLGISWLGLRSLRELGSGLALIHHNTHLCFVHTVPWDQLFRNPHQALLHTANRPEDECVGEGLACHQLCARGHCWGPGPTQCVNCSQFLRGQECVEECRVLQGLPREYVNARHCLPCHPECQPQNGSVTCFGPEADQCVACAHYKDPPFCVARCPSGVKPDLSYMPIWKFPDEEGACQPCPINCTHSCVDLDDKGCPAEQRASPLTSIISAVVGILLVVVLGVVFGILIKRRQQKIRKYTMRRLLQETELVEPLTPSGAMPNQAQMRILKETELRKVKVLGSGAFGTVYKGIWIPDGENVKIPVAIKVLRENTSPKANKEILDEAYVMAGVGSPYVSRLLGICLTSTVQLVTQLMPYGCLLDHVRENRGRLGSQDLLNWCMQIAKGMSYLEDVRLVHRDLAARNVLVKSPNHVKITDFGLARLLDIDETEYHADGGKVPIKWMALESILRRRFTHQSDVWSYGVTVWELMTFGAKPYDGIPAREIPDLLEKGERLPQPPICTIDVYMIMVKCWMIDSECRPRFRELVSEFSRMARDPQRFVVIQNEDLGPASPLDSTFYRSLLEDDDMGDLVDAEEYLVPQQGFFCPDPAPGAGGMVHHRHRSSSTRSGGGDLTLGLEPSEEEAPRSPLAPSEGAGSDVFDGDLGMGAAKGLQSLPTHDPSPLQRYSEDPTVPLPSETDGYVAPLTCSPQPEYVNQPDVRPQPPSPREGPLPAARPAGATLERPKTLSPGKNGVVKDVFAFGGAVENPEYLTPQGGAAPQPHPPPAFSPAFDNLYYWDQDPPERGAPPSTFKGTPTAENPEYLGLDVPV
Summary of the method: (§2)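 Baculovirus-expressed kinase (0.8 nM EGFR or 10 nM ErbB2 in enzyme mix) with Peptide C 0.8 μM and ATP 20 μM (substrate-mix levels), MOPS pH 7.5, MnCl2; 90 min, 20 °C, HTRF anti-phosphotyrosine. Method A adds 1 h enzyme–compound preincubation; B none. pIC50, final compound 0.00027–47.6 μM.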

A375P F11s tumor cells = assay: Method C: Cell Growth Inhibition Assay (CellTiter-Glo), A375P F11s; type: cell-based; conditions: Homo sapiens, 72 h, 3 days, 4-parameter fit
Summary of the method: (§3)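 500 cells/well; next-day compound, 1:3 serial dilutions, 0.2% DMSO final; 3 d, 37° C, 5% CO2. Readout: CellTiter-Glo luminescence (total ATP as cell-number surrogate). IC50 from 4-parameter fit of % growth inhibition vs vehicle.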

Colo205 tumor cells = assay: Method C: Cell Growth Inhibition Assay (CellTiter-Glo), Colo205; type: cell-based; conditions: Homo sapiens, COLO 205, 72 h, 3 days, 4-parameter fit
Summary of the method: as §1

HT-29 tumor cells = assay: Method C: Cell Growth Inhibition Assay (CellTiter-Glo), HT-29; type: cell-based; conditions: Homo sapiens, HT-29, 72 h, 3 days, 4-parameter fit
Summary of the method: as §3

HN5 tumor cells = assay: Method C: Cell Growth Inhibition Assay (CellTiter-Glo), HN5; type: cell-based; conditions: Homo sapiens, 72 h, 3 days, 4-parameter fit
Summary of the method: as §3

BT474 tumor cells = assay: Method C: Cell Growth Inhibition Assay (CellTiter-Glo), BT474; type: cell-based; conditions: Homo sapiens, BT-474, 72 h, 3 days, 4-parameter fit
EGFR = molecular target: T2, EGFR (Homo sapiens, UniProt P00533); assay: EGFR substrate phosphorylation assay (HTRF); type: biochemical; conditions: Method (A): Enzyme Mix incubated with compound at 20° C. for 1 hr, reaction started by adding Substrate Mix
T2 construct: made in house; host or cells: baculovirus expression system
T2 sequence (P00533 25-1210): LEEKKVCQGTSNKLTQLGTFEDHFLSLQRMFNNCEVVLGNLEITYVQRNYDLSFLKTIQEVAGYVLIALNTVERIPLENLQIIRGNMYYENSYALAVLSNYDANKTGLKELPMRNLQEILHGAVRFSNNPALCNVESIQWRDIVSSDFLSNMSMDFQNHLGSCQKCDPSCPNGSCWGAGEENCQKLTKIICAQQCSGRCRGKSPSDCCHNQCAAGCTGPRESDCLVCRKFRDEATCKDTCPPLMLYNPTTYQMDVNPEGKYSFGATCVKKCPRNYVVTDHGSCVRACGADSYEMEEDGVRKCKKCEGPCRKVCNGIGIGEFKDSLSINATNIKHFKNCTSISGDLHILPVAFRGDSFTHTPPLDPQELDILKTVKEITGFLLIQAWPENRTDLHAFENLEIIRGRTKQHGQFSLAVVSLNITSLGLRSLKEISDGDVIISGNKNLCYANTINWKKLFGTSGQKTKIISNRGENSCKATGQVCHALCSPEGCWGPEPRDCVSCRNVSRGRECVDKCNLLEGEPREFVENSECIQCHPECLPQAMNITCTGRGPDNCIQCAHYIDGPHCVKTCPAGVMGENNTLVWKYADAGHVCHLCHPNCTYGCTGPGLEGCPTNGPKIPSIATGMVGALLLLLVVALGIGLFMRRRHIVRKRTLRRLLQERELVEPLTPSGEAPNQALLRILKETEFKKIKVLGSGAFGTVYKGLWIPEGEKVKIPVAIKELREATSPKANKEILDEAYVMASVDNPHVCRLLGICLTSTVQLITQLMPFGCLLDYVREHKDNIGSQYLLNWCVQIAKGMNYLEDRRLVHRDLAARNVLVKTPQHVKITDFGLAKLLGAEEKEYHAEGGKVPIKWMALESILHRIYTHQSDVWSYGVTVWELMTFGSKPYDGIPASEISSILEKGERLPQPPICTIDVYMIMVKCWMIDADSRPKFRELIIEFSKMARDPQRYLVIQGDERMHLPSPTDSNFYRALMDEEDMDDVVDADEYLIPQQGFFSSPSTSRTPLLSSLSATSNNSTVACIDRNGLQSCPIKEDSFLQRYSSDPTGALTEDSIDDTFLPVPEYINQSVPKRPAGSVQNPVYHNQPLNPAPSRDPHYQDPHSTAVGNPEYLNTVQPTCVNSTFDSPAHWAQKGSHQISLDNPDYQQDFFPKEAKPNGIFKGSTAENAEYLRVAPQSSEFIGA
Summary of the method: as §2

SK-MEL-28 tumor cells = assay: Method C: Cell Growth Inhibition Assay (CellTiter-Glo), SK-MEL-28; type: cell-based; conditions: Homo sapiens, SK-MEL-28, 72 h, 3 days, 4-parameter fit
Summary of the method: as §3

IC50 (SK-MEL-3 tumor cells) [µM]	IC50 (ErbB2) [µM]	IC50 (A375P F11s tumor cells) [µM]	IC50 (Colo205 tumor cells) [µM]	IC50 (HT-29 tumor cells) [µM]	IC50 (HN5 tumor cells) [µM]	IC50 (BT474 tumor cells) [µM]	IC50 (EGFR) [µM]	IC50 (SK-MEL-28 tumor cells) [µM]	Compound
> 1	< 0.1	> 1	> 1	> 1	> 1	> 1	< 0.1	> 1	CN(C)CCOc1cccc(Nc2nccc(-c3scnc3-c3cccc(NC(=O)Cc4cccs4)c3)n2)c1 [Example 84, N-[3-(5-{2-[(3-{[2-(Dimethylamino)ethyl]oxy}phenyl)amino]-4-pyrimidinyl}-1,3-thiazol-4-yl)phenyl]-2-(2-thienyl)acetamide]
> 1	< 0.1	> 1	> 1	0.1 to 1	0.1 to 1	0.1 to 1	< 0.1	> 1	Cc1nc(-c2cccc(NC(=O)c3ccc(F)cc3)c2)c(-c2ccnc(Nc3ccc(OCCN(C)C)c(Cl)c3)n2)s1 [Example 134, N-[3-(5-{2-[(3-Chloro-4-{[2-(dimethylamino)ethyl]oxy}phenyl)amino]-4-pyrimidinyl}-2-methyl-1,3-thiazol-4-yl)phenyl]-4-fluorobenzamide]
0.1 to 1	< 0.1	0.1 to 1	0.1 to 1	0.1 to 1	< 0.1	< 0.1	< 0.1	0.1 to 1	CC(=O)Nc1nc(-c2cccc(NC(=O)c3c(F)cccc3F)c2)c(-c2ccnc(Nc3cccc(CN4CCCC4)c3)n2)s1 [Example 34, N-{3-[2-(Acetylamino)-5-(2-{[3-(1-pyrrolidinylmethyl)phenyl]amino}-4-pyrimidinyl)-1,3-thiazol-4-yl]phenyl}-2,6-difluorobenzamide]
> 1	< 0.1	> 1	0.1 to 1	> 1	0.1 to 1	0.1 to 1	< 0.1	> 1	CN1CCc2ccc(Nc3nccc(-c4sc(C5CCNCC5)nc4-c4cccc(NC(=O)c5c(F)cccc5F)c4)n3)cc2C1 [Example 124, 2,6-Difluoro-N-{3-[5-{2-[(2-methyl-1,2,3,4-tetrahydro-7-isoquinolinyl)amino]-4-pyrimidinyl}-2-(4-piperidinyl)-1,3-thiazol-4-yl]phenyl}benzamide]
> 1	< 0.1	0.1 to 1	0.1 to 1	0.1 to 1	0.1 to 1	< 0.1	< 0.1	> 1	Cc1nc(-c2cccc(NC(=O)c3c(F)cccc3F)c2)c(-c2ccnc(Nc3ccc(OC4CCN(C)CC4)c(F)c3)n2)s1 [Example 108, 2,6-Difluoro-N-(3-{5-[2-({3-fluoro-4-[(1-methyl-4-piperidinyl)oxy]phenyl}amino)-4-pyrimidinyl]-2-methyl-1,3-thiazol-4-yl}phenyl)benzamide]
0.1 to 1	< 0.1	0.1 to 1	0.1 to 1	0.1 to 1	< 0.1	< 0.1	< 0.1	> 1	Nc1nc(-c2cccc(NC(=O)c3c(F)cccc3F)c2)c(-c2ccnc(Nc3cccc(CN4CCCC4)c3)n2)s1 [Example 13, N-{3-[2-Amino-5-(2-{[3-(1-pyrrolidinylmethyl)phenyl]amino}-4-pyrimidinyl)-1,3-thiazol-4-yl]phenyl}-2,6-difluorobenzamide]
0.1 to 1	< 0.1	0.1 to 1	0.1 to 1	0.1 to 1	0.1 to 1	0.1 to 1	< 0.1	0.1 to 1	CCNc1nc(-c2cccc(NC(=O)c3c(F)cccc3F)c2)c(-c2ccnc(Nc3ccc(OCCN(C)C)c(Cl)c3)n2)s1 [Example 25]
0.1 to 1	< 0.1	0.1 to 1	0.1 to 1	0.1 to 1	0.1 to 1	0.1 to 1	< 0.1	0.1 to 1	CN(C)CCOc1ccc(Nc2nccc(-c3sc(NCCCN4CCOCC4)nc3-c3cccc(NC(=O)c4c(F)cccc4F)c3)n2)cc1Cl [Example 4, N-[3-(5-{2-[(3-Chloro-4-{[2-(dimethylamino)ethyl]oxy}phenyl)-amino]-4-pyrimidinyl}-2-{[3-(4-morpholinyl)propyl]amino}-1,3-thiazol-44)phenyl]-2,6-difluorobenzamide]
0.1 to 1	< 0.1	0.1 to 1	0.1 to 1	0.1 to 1	< 0.1	< 0.1	< 0.1	0.1 to 1	Cc1nc(-c2cccc(NC(=O)c3c(F)cccc3F)c2)c(-c2ccnc(Nc3ccc(OC4CCNCC4)c(F)c3)n2)s1 [Example 107, 2,6-DUDuoro-N-{3-[5-(2-{[3-fluoro-4-(4-piperidinyloxy)phenyl]amino}-4-pyrimidinyl)-2-methyl-1,3-thiazol-4-yl]phenyl}benzamide]
0.1 to 1	< 0.1	0.1 to 1	0.1 to 1	0.1 to 1	< 0.1	0.1 to 1	< 0.1	0.1 to 1	CN1CCc2ccc(Nc3nccc(-c4sc(N(C)C)nc4-c4cccc(NC(=O)c5c(F)cccc5F)c4)n3)cc2C1 [Example 38]
0.1 to 1	< 0.1	0.1 to 1	0.1 to 1	0.1 to 1	< 0.1	< 0.1	< 0.1	0.1 to 1	CN(C)CCOc1ccc(Nc2nccc(-c3sc(N)nc3-c3cccc(NC(=O)c4c(F)cccc4F)c3)n2)cc1Cl [Example 5, N-(3-{2-Amino-5-[2-({3-chloro-4-[2-(dimethylamino)ethoxy]-phenyl}amino)pyrimidin-4-yl]-1,3-thiazol-4-yl}phenyl)-2,6-difluorobenzamide-formic acid]
> 1	< 0.1	> 1	0.1 to 1	0.1 to 1	0.1 to 1	0.1 to 1	< 0.1	0.1 to 1	CN1CCc2ccc(Nc3nccc(-c4sc(N5CCCC5)nc4-c4cccc(NC(=O)c5c(F)cccc5F)c4)n3)cc2C1 [Example 44, 2,6-Difluoro-N-{3-[5-{2-[(2-methyl-1,2,3,4-tetrahydro-7-isoquinolinyl)amino]-4-pyrimidinyl}-2-(1-pyrrolidinyl)-1,3-thiazol-4-yl]phenyl}benzamide]
> 1	< 0.1	0.1 to 1	0.1 to 1	0.1 to 1	0.1 to 1	< 0.1	< 0.1	> 1	CN(C)Cc1cccc(Nc2nccc(-c3scnc3-c3cccc(NC(=O)c4c(F)cccc4F)c3)n2)c1 [Example 90, N-(3-{5-[2-({3-[(Dimethylamino)methyl]-phenyl}amino)-4-pyrimidinyl]-1,3-thiazol-4-yl}phenyl)-2,6-difluorobenzamide-formic acid]

— patent US20110098296A1, “Thiazole And Oxazole Kinase Inhibitors” (priority 2007, published 2011)
